This is an account of results in PubChem BioAssay (NCI).

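The compound was tested at five concentrations on cells cultured in 96-well plates, with a 48-hour exposure period. GI50 is the concentration that inhibits growth by half. TGI: total growth inhibition.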

Test systems include CAKI-1 renal; RPMI-8226 leukemia; SF-295 CNS; OVCAR-3 ovarian; SNB-75 CNS; M14 melanoma; SNB-19 CNS; SK-MEL-2 melanoma; SF-539 CNS; SK-OV-3 ovarian.
What all share (experiment): growth of human tumour cells (NCI), 48 h

Consider `C[C@H]1COCCN1c1cc(C2(S(=O)(=O)C3CC3)CC2)nc(-c2ccc(NC(=S)NCCO)cc2)n1`, for which the GI50 is 139 nM with CAKI-1 renal; less than 12.5 nM with RPMI-8226 leukemia; 19.4 nM in the experiment on SF-295 CNS; 22 nM with OVCAR-3 ovarian; less than 10 nM in the experiment on SNB-75 CNS; 28.7 nM in the experiment with M14 melanoma. Besides, the GI50 with SNB-19 CNS was 61 nM; in the experiment with SK-MEL-2 melanoma it was 28.9 nM; in the experiment on SF-539 CNS, 29.2 nM; in the experiment on SK-OV-3 ovarian it was less than 10 nM. Further, the TGI with CAKI-1 renal was determined as 10200 nM; in the experiment with RPMI-8226 leukemia, 1860 nM; in the experiment with SF-295 CNS, 228 nM; with OVCAR-3 ovarian it was 11700 nM; in the experiment with SNB-75 CNS, 86.5 nM; in the experiment with M14 melanoma, 10100 nM. Also, the TGI in the experiment with SNB-19 CNS was 11500 nM; in the experiment with SK-MEL-2 melanoma, 517 nM; in the experiment on SF-539 CNS, 347 nM; in the experiment with SK-OV-3 ovarian it was 55.6 nM.
As for `O=C(c1ccccc1)c1c(C(F)(F)F)n([O-])c2cc(C(F)(F)F)ccc2[n+]1=O`, the GI50 in the experiment with CAKI-1 renal is 491 nM; in the experiment on RPMI-8226 leukemia, 1490 nM; in the experiment with SF-295 CNS it was 1570 nM; with OVCAR-3 ovarian it was 1610 nM; in the experiment with SNB-75 CNS, 1630 nM; in the experiment with M14 melanoma it was 1680 nM. For the same compound, the GI50 is 1890 nM in the experiment on SNB-19 CNS, 2090 nM in the experiment on SK-MEL-2 melanoma, 1740 nM in the experiment on SF-539 CNS and 1770 nM with SK-OV-3 ovarian. Further, the TGI in the experiment with CAKI-1 renal was found to be 956 nM; with RPMI-8226 leukemia, 3750 nM; in the experiment with SF-295 CNS it was 2970 nM; with OVCAR-3 ovarian it was 3110 nM; in the experiment on SNB-75 CNS it was 3050 nM; with M14 melanoma, 3170 nM. In addition, the TGI in the experiment with SNB-19 CNS was 3460 nM; in the experiment on SK-MEL-2 melanoma, 3930 nM; in the experiment with SF-539 CNS, 3170 nM; in the experiment on SK-OV-3 ovarian, 3210 nM.
On to `Cc1nc(N)nc(N)c1CCCc1ccccc1`, for which the TGI in the experiment on CAKI-1 renal was greater than 100000 nM; with RPMI-8226 leukemia, greater than 100000 nM; in the experiment with SF-295 CNS it was greater than 100000 nM; with OVCAR-3 ovarian, greater than 100000 nM; with SNB-75 CNS, greater than 100000 nM; in the experiment on M14 melanoma, 64200 nM. Also, the TGI in the experiment on SNB-19 CNS, with SK-MEL-2 melanoma, in the experiment on SF-539 CNS and in the experiment with SK-OV-3 ovarian was greater than 100000 nM each time.
As for `CCCCCCCC/C=C1\CCC(CN2CCOCC2)C1=O` (stereo not given), the TGI amounted to 23800 nM with CAKI-1 renal; 4190 nM in the experiment with RPMI-8226 leukemia; 28200 nM with SF-295 CNS; 14800 nM in the experiment on OVCAR-3 ovarian; 23500 nM in the experiment on SNB-75 CNS; 16700 nM in the experiment on M14 melanoma. Besides, the TGI with SNB-19 CNS was 24600 nM; with SK-MEL-2 melanoma, 28800 nM; in the experiment on SF-539 CNS it was 14700 nM; with SK-OV-3 ovarian, 34300 nM.
Consider `O=C(/C=C1\C(=O)N(Cc2ccccc2)c2ccccc21)c1ccc(OCCN2CCCCC2)cc1`, for which the GI50 with CAKI-1 renal was 1780 nM; in the experiment with RPMI-8226 leukemia, 2070 nM; in the experiment with SF-295 CNS it was 12700 nM; in the experiment on OVCAR-3 ovarian it was 1750 nM; in the experiment with SNB-75 CNS, 11800 nM; in the experiment with M14 melanoma it was 1920 nM. Moreover, the GI50 with SNB-19 CNS was 2260 nM; with SK-MEL-2 melanoma it was 11700 nM; in the experiment on SF-539 CNS it was 2070 nM; with SK-OV-3 ovarian, 15000 nM. Also, the TGI came out at 4020 nM with CAKI-1 renal; 4720 nM in the experiment with RPMI-8226 leukemia; 25900 nM with SF-295 CNS; 3200 nM in the experiment with OVCAR-3 ovarian; 24400 nM in the experiment with SNB-75 CNS; 3720 nM in the experiment on M14 melanoma. For the same compound, the TGI turned out to be 5990 nM in the experiment with SNB-19 CNS, 24300 nM with SK-MEL-2 melanoma, 4140 nM with SF-539 CNS and 28200 nM in the experiment with SK-OV-3 ovarian.
On to `O=C(c1ccco1)c1c(C(F)(F)F)n([O-])c2cc(C(F)(F)F)ccc2[n+]1=O`, for which the GI50 in the experiment with CAKI-1 renal is 1510 nM; with RPMI-8226 leukemia, 455 nM; with SF-295 CNS it was 1290 nM; in the experiment with OVCAR-3 ovarian it was 1430 nM; in the experiment with SNB-75 CNS, 1550 nM; with M14 melanoma, 1620 nM. Also, the GI50 with SNB-19 CNS is 1470 nM; in the experiment on SK-MEL-2 melanoma, 2620 nM; in the experiment on SF-539 CNS, 1270 nM; with SK-OV-3 ovarian it was 1650 nM. Further, the TGI is 2970 nM with CAKI-1 renal; 1190 nM in the experiment on RPMI-8226 leukemia; 2830 nM in the experiment with SF-295 CNS; 3130 nM in the experiment on OVCAR-3 ovarian; 2960 nM with SNB-75 CNS; 3050 nM in the experiment on M14 melanoma. Further, the TGI in the experiment on SNB-19 CNS turned out to be 2990 nM; in the experiment with SK-MEL-2 melanoma, 6730 nM; in the experiment with SF-539 CNS it was 2610 nM; in the experiment with SK-OV-3 ovarian, 3130 nM.
Turning to `CC(=O)O[C@H]1C(=O)[C@@]2(C)[C@H]([C@H](OC(=O)c3ccccc3)[C@]3(O)C[C@H](OC(=O)[C@H](OC(=O)OC[C@H]4COC(C)(C)O4)[C@@H](NC(=O)c4ccccc4)c4ccccc4)C(C)=C1C3(C)C)[C@]1(OC(C)=O)CO[C@@H]1C[C@@H]2O`, the GI50 is 88.5 nM with CAKI-1 renal; 7.54 nM in the experiment with RPMI-8226 leukemia; 36.5 nM in the experiment on SF-295 CNS; 10.9 nM in the experiment on OVCAR-3 ovarian; 3.33 nM in the experiment with SNB-75 CNS; 17.1 nM in the experiment with M14 melanoma. Moreover, the GI50 was 61.5 nM with SNB-19 CNS, 97.8 nM in the experiment with SK-MEL-2 melanoma, 57.9 nM with SF-539 CNS and 232 nM in the experiment on SK-OV-3 ovarian. Also, the TGI with CAKI-1 renal is greater than 33300 nM; in the experiment with RPMI-8226 leukemia, greater than 33300 nM; in the experiment with SF-295 CNS, 314 nM; in the experiment on OVCAR-3 ovarian it was 252 nM; with SNB-75 CNS, 69.7 nM; with M14 melanoma, 133 nM. In addition, the TGI is greater than 33300 nM in the experiment with SNB-19 CNS, greater than 33300 nM in the experiment on SK-MEL-2 melanoma, 16700 nM in the experiment on SF-539 CNS and greater than 33300 nM in the experiment on SK-OV-3 ovarian.
As to `CC(C(=O)c1ccccc1)C1(O)C(=O)Nc2ccc(Cl)cc21` (stereo not given), the TGI with CAKI-1 renal, in the experiment with RPMI-8226 leukemia, in the experiment with SF-295 CNS, in the experiment on OVCAR-3 ovarian, in the experiment with SNB-75 CNS and in the experiment with M14 melanoma was greater than 100000 nM in each case. The TGI with SNB-19 CNS, in the experiment on SK-MEL-2 melanoma, in the experiment with SF-539 CNS and in the experiment on SK-OV-3 ovarian was greater than 100000 nM in each case.
